The text below walks through data of ChEMBL document CHEMBL1127124, “Selective inactivation of monoamine oxidase B by aminoethyl 3-chlorobenzyl ether” (Bioorg Med Chem Lett, 1993).

The structures appear in SMILES notation.

In assay [1] the target is T1, Amine oxidase [flavin-containing] B (Bos taurus, UniProt P56560).
T1 sequence (P56560 whole entry): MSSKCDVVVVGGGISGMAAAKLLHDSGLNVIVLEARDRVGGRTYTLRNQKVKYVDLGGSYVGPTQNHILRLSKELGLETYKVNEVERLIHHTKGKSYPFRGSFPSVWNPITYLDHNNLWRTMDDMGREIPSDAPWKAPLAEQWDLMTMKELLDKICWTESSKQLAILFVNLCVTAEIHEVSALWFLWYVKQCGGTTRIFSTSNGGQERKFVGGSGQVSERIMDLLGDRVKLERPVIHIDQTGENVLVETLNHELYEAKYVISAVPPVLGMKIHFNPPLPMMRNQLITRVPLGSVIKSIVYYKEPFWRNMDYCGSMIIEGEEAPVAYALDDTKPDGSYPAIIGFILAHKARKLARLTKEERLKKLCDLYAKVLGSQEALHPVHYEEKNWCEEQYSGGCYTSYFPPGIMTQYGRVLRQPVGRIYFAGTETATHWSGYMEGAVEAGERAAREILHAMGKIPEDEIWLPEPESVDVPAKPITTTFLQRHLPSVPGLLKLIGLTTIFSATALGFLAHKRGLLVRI
Briefly: Tested for enzyme affinity with purified bovine liver MAO B.

The target in assay [2] is T1, Amine oxidase [flavin-containing] B. As to the kind of experiment: Tested for enzyme kinetic activity with purified bovine liver MAO B. As to conditions: cattle.
Assay [3] has as its target T2, Amine oxidase [flavin-containing] A (Bos taurus, UniProt P21398).
T2 sequence (P21398 whole entry): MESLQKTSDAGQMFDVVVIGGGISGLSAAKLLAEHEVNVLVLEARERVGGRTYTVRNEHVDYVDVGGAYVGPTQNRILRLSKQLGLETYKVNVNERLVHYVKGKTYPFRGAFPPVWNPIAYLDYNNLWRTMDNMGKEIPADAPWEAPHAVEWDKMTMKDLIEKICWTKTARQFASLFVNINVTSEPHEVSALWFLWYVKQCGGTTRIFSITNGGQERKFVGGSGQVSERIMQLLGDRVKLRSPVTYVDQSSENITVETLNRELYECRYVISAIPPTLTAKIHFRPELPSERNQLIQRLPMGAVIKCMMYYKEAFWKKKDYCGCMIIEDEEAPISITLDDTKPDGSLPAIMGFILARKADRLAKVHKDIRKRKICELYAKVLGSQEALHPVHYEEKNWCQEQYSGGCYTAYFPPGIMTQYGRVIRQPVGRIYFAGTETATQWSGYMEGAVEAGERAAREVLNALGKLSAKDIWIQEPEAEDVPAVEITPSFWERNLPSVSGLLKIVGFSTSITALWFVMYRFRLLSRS
Briefly: Tested for enzyme affinity with purified bovine liver MAO A.

Assay [4] addresses T2, Amine oxidase [flavin-containing] A. As to the kind of experiment: Tested for enzyme kinetic activity with purified bovine liver MAO A. The note with it: cattle.

With `NCCOCc1cccc(Cl)c1`, the figures for the inhibition constant Ki in assay [1] and in assay [3] were 5 µM and 340 µM, respectively. The kinact is 0.0117 s⁻¹ in assay [2] and 0.000467 s⁻¹ in assay [4].
